This is an account of results in ChEMBL document CHEMBL2390953, “Pyridinylpyrimidines selectively inhibit human methionine aminopeptidase-1” (Bioorg Med Chem, 2013).

SMILES strings stand for the structures.

For assay [1], the species on record is Homo sapiens. The assay can be described thus: Selectivity ratio of EC50 for human recombinant GST-6XHis-tagged full-length cytosolic METAP2 to EC50 for human recombinant full-length cytosolic METAP1.
Assay [2] addresses Methionine aminopeptidase 1 (Homo sapiens, UniProt P53582).
Description: Inhibition of human recombinant full-length cytosolic METAP1 expressed in Escherichia coli BL21(DE3) using Met-Pro-p-nitroanilide as substrate after 20 mins by spectrophotometric analysis in presence of Bacillus coagulans GST-tagged proline iminopeptidase
In assay [3] the target is Methionine aminopeptidase 2 (Homo sapiens, UniProt P50579). The assay can be described thus: biochemical.
Chain of Methionine aminopeptidase 2 (P50579 whole entry): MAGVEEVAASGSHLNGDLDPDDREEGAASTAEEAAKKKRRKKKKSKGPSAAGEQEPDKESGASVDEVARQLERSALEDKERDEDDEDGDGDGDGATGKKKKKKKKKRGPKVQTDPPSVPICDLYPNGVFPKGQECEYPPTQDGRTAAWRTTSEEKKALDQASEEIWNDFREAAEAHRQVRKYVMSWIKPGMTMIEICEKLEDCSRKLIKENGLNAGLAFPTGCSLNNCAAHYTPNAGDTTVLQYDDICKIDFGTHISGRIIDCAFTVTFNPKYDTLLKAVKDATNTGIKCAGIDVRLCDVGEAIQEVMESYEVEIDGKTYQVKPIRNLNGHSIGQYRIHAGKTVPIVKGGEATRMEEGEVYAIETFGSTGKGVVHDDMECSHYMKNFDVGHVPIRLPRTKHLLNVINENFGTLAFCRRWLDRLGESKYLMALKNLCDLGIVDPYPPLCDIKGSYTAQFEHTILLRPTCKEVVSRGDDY
Description: Inhibition of human recombinant GST-6XHis-tagged full-length cytosolic METAP2 expressed in cabbage looper BTI-TN-5B1-4 cells using Met-Pro-p-nitroanilide as substrate after 20 mins by spectrophotometric analysis in presence of Bacillus coagulans GST-tagged proline iminopeptidase
Assay [4] concerns the target T1, Proline iminopeptidase (Bacillus coagulans) (UniProt P46541).
T1 sequence (whole entry): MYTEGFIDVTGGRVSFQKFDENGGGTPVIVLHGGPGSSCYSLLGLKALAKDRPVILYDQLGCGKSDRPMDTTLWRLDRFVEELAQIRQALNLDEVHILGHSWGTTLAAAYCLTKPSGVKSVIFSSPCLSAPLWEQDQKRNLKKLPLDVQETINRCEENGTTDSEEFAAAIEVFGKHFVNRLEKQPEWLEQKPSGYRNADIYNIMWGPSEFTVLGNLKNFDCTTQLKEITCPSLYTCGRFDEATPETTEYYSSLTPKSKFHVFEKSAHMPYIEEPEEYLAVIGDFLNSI
The assay can be described thus: Inhibition of Bacillus coagulans GST-tagged proline iminopeptidase using Pro-p-nitroanilide as substrate at 100 uM relative to control. The note with it: Heyndrickxia coagulans.

In assay [5] the target is T1, Proline iminopeptidase (Bacillus coagulans). In words: Inhibition of Bacillus coagulans GST-tagged proline iminopeptidase using Pro-p-nitroanilide as substrate at 10 uM relative to control. The note with it: Heyndrickxia coagulans.

The term IC50 denotes the concentration needed to halve the response being measured. High values mean weaker potency in that assay, low ones greater potency in that assay. A word on the inhibition: it is the relative decrease from the control value, in per cent. A high value points to a strong effect.

Regarding `Cc1nc(-c2ccc(Cl)cn2)nc(NC[C@H](NC(=O)CCCc2ccccc2)c2ccccc2)c1Cl`, the Ratio EC50 in assay [1] is above 188. Moreover, the IC50 in assay [2] was 160 nM; in assay [3] it was above 30000 nM.
For `Cc1nc(-c2ccc(F)cn2)nc(NC[C@H](NC(=O)CCCN2CCNCC2)c2ccccc2)c1Cl`, in that order: 24, 49 nM and 1200 nM.
For `Cc1nc(-c2ccc(Cl)cn2)nc(NC[C@H](NCCCCCCc2ccccc2)c2ccccc2)c1Cl`, in that order: above 42, 710 nM and above 30000 nM.
As for `Cc1nc(-c2ccc(Cl)cn2)nc(NC[C@H](NC(=O)CCCCCc2ccccc2)c2ccccc2)c1Cl`, in assay [1], the Ratio EC50 was above 45. Further, the values for the IC50 in assay [2] and in assay [3] were 670 nM and above 30000 nM, respectively.
`Cc1nc(-c2ccc(Cl)cn2)nc(NC[C@H](NC(=O)CCc2ccccc2)c2ccccc2)c1Cl`: the Ratio EC50 in assay [1] is above 323. For the same compound, the values for the IC50 in assay [2] and in assay [3] were 93 nM and above 30000 nM, respectively.
For `Cc1nc(-c2ccc([N+](=O)[O-])cn2)nc(NC[C@H](NC(=O)CCCN2CCNCC2)c2ccccc2)c1Cl`, in that order: 47, 300 nM and 14000 nM.
The compound `Cc1nc(-c2ccccn2)nc(N2CCN(CCO)CC2)c1Cl` registered an IC50 in assay [3] above 100000 nM.
Consider `Cc1nc(-c2ccc(Cl)cn2)nc(NC[C@H](NCCCCc2cccs2)c2ccccc2)c1Cl`, for which, in assay [1], the Ratio EC50 is above 789. The IC50 was 380 nM in assay [2] and above 300000 nM in assay [3].
For `Cc1nc(-c2ccc(Br)cn2)nc(NC[C@H](NC(=O)CCCN2CCNCC2)c2ccccc2)c1Cl`, in that order: 161, 330 nM and 53000 nM.
For `Cc1nc(-c2ccc(Cl)cn2)nc(NC[C@H](NCCCCc2ccc(O)cc2)c2ccccc2)c1Cl`, in that order: above 714, 420 nM and above 300000 nM.
Turning to `Cc1nc(-c2ccc(Cl)cn2)nc(NC[C@H](NCCCCc2ccccc2)c2ccccc2)c1Cl`, the IC50 in assay [3] was above 100000 nM.
In the case of `Cc1nc(-c2ncccc2Cl)nc(NC[C@H](NC(=O)CCCN2CCNCC2)c2ccccc2)c1Cl`, in assay [1], the Ratio EC50 was above 39. Besides, the IC50 in assay [2] was 7600 nM; in assay [3] it was above 300000 nM.
`Cc1nc(-c2ccccn2)nc(NC[C@H](NCCCCN2CCNCC2)c2ccccc2)c1Cl` gave an IC50 in assay [3] of 188000 nM.
In assay [3], `Cc1nc(-c2ccccn2)nc(SCCc2ccccc2)c1Cl` had an IC50 above 100000 nM.
Consider `Cc1nc(-c2cc(Cl)ccn2)nc(NC[C@H](NC(=O)CCCN2CCNCC2)c2ccccc2)c1Cl`, for which, in assay [1], the Ratio EC50 was above 411. Further, the figures for the IC50 in assay [2] and in assay [3] were 730 nM and above 300000 nM, respectively.
For `Cc1nc(-c2ccc(Cl)cn2)nc(NC[C@H](NCCCCCc2ccccc2)c2ccccc2)c1Cl`, in that order: above 138, 780 nM and above 100000 nM.
As to `Cc1nc(-c2ccc(Cl)cn2)nc(NC[C@H](NCCCCc2ccc(Cl)cc2)c2ccccc2)c1Cl`, the Ratio EC50 in assay [1] was above 526. Also, the IC50 is 570 nM in assay [2] and above 300000 nM in assay [3].
For `Cc1nc(-c2ccccn2)nc(NC[C@H](NCCCN2CCN(CCO)CC2)c2ccccc2)c1Cl`, the IC50 in assay [3] was found to be 101000 nM.
On the same count and under the same terms, for `Cc1nc(-c2ccccn2)nc(NCCNc2ccc(C(F)(F)F)cn2)c1Cl` the value was above 100000 nM.
With `Cc1nc(-c2ccc(Cl)cn2)nc(NC[C@H](NC(=O)CCCN2CCNCC2)c2ccccc2)c1Cl`, the Ratio EC50 in assay [1] was 33. The figures for the IC50 in assay [2] and in assay [3] were 36 nM and 1200 nM, respectively.
For `Cc1nc(-c2ccc(Cl)cn2)nc(NC[C@H](NC(=O)Cc2ccccc2)c2ccccc2)c1Cl`, the Ratio EC50 in assay [1] is 40. Further, the IC50 in assay [2] was determined as 700 nM; in assay [3], 28000 nM.
`Cc1nc(-c2ccccn2)nc(NC[C@H](NC(=O)CCCN2CCN(CCO)CC2)c2ccccc2)c1Cl`: in assay [3], the IC50 is above 300000 nM.
For `Cc1nc(-c2ccccn2)nc(NC[C@H](NC(=O)CCN2CCN(CCO)CC2)c2ccccc2)c1Cl`, in assay [3], half-maximal inhibition (IC50) required 114000 nM.
As for `Cc1nc(-c2cccnc2)nc(NCc2ccccc2)c1Cl`, the IC50 in assay [2] and in assay [3] was above 100000 nM throughout.
`Cc1nc(-c2ccc(Cl)cn2)nc(NCC(CCCCCc2ccccc2)c2ccccc2)c1Cl` (racemic): the Ratio EC50 in assay [1] is above 87. Further, the IC50 in assay [2] is 2300 nM; in assay [3], above 200000 nM.
The compound `Cc1nc(-c2ccccn2)nc(SCc2ccccc2)c1Cl` returned an IC50 in assay [3] above 100000 nM.
As for `Cc1nc(-c2ccc(Cl)cn2)nc(NCC(CCCCc2ccccc2)c2ccccc2)c1Cl` (configuration not stated), the Ratio EC50 in assay [1] is above 1000. Further, the IC50 is 200 nM in assay [2] and above 200000 nM in assay [3].
In the case of `Cc1nc(-c2ccc(Cl)cn2)nc(NC[C@H](NCCCCc2ccc(C#N)cc2)c2ccccc2)c1Cl`, the inhibition in assay [4] worked out at 97%; in assay [5], 27%. Besides, in assay [1], the Ratio EC50 stood at 31. Also, the values for the IC50 in assay [2] and in assay [3] were 520 nM and 16000 nM, respectively.
For `Cc1nc(-c2cccc(Cl)n2)nc(NC[C@H](NC(=O)CCCN2CCNCC2)c2ccccc2)c1Cl`, in assay [1], the Ratio EC50 was above 4.2. The IC50 in assay [2] is 7200 nM; in assay [3], above 30000 nM.
For `COc1cccc(-c2nc(C)c(Cl)c(NC[C@H](NC(=O)CCCN3CCNCC3)c3ccccc3)n2)n1`, in that order: above 1.5, 20000 nM and above 30000 nM.
`Cc1nc(-c2ccccn2)nc(NCCc2ccccc2)c1C`: the IC50 in assay [2] and in assay [3] was above 100000 nM each time.
For `COc1cccnc1-c1nc(C)c(Cl)c(NC[C@H](NC(=O)CCCN2CCNCC2)c2ccccc2)n1`, the Ratio EC50 in assay [1] was above 120. Also, the IC50 was 2500 nM in assay [2] and above 300000 nM in assay [3].
With `Cc1nc(-c2ccc(Cl)cn2)nc(NC[C@H](NCCc2ccccc2)c2ccccc2)c1Cl`, the Ratio EC50 in assay [1] was above 384. For the same compound, the figures for the IC50 in assay [2] and in assay [3] were 260 nM and above 100000 nM, respectively.
For the compound `Cc1nc(-c2ccc(N(C)C)cn2)nc(NC[C@H](NC(=O)CCCN2CCNCC2)c2ccccc2)c1Cl`, the Ratio EC50 in assay [1] was found to be 12. Also, the results for the IC50 in assay [2] and in assay [3] were 140 nM and 1700 nM, respectively.
For the compound `CCCOc1ccc(CCCCN[C@@H](CNc2nc(-c3ccc(Cl)cn3)nc(C)c2Cl)c2ccccc2)cc1`, in assay [1], the Ratio EC50 is above 250. Moreover, the IC50 in assay [2] is 1200 nM; in assay [3], above 300000 nM.
With `Cc1nc(-c2ccccn2)nc(NCCNc2cccc(C(F)(F)F)n2)c1Cl`, in assay [3], the IC50 was above 100000 nM.
The same measure, in the same setting: for `Cc1nc(-c2ccccn2)nc(NC[C@H](NC(=O)CCCN2CCNCC2)c2ccccc2)c1Cl` the value was above 300000 nM.
Same read-out and setting: for `Cc1nc(-c2ccccn2)nc(NC[C@H](NCCCCN2CCN(CCO)CC2)c2ccccc2)c1Cl` the value was 197000 nM.
Compound `Cc1nc(-c2ccccn2)nc(NC[C@H](NCCCN2CCNCC2)c2ccccc2)c1Cl` returned an IC50 in assay [3] of 108000 nM.
Take `Cc1nc(-c2ccc(Cl)cn2)nc(NC[C@H](NCc2ccccc2)c2ccccc2)c1Cl`: the Ratio EC50 in assay [1] worked out at 141. For the same compound, the IC50 was 220 nM in assay [2] and 31000 nM in assay [3].
Consider `Cc1cc(NCCc2ccccc2)nc(-c2ccccn2)n1`, for which the IC50 in assay [2] and in assay [3] was above 100000 nM in each case.
In the case of `COc1ccnc(-c2nc(C)c(Cl)c(NC[C@H](NC(=O)CCCN3CCNCC3)c3ccccc3)n2)c1`, in assay [1], the Ratio EC50 amounted to 26. The IC50 in assay [2] came out at 530 nM; in assay [3], 14000 nM.
For `COc1ccc(-c2nc(C)c(Cl)c(NC[C@H](NC(=O)CCCN3CCNCC3)c3ccccc3)n2)nc1`, in that order: above 1110, 270 nM and above 300000 nM.
For `Cc1nc(-c2ccc(Cl)cn2)nc(NCC(CCCc2ccccc2)c2ccccc2)c1Cl` (configuration not stated), in that order: above 1250, 160 nM and above 200000 nM.
For `Cc1nc(-c2ccc(Cl)cn2)nc(NCC(CCc2ccccc2)c2ccccc2)c1Cl` (configuration not stated), in that order: above 3180, 63 nM and above 200000 nM.
Take `Cc1nc(-c2ccc(Cl)cn2)nc(NC[C@H](NCCCCc2ccco2)c2ccccc2)c1Cl`: in assay [1], the Ratio EC50 was above 909. For the same compound, the values for the IC50 in assay [2] and in assay [3] were 330 nM and above 300000 nM, respectively.
For `Cc1nc(-c2ccc(Cl)cn2)nc(NC[C@H](NCCCCn2cccc2)c2ccccc2)c1Cl`, in that order: above 200, 500 nM and above 100000 nM.
As for `Cc1nc(-c2ccccn2)nc(NC2CCN(c3ncc(C(F)(F)F)cc3Cl)CC2)c1Cl`, the IC50 in assay [3] was above 100000 nM.
Regarding `Cc1nc(-c2ccc(Cl)cn2)nc(NC[C@H](NC(=O)CCCCc2ccccc2)c2ccccc2)c1Cl`, in assay [1], the Ratio EC50 is above 23. In addition, the values for the IC50 in assay [2] and in assay [3] were 1300 nM and above 30000 nM, respectively.
For `Cc1nc(-c2ccc(Cl)cn2)nc(NC[C@H](NCCCc2ccccc2)c2ccccc2)c1Cl`, in that order: above 1150, 260 nM and above 300000 nM.
For `Cc1nc(-c2ccc(Cl)cn2)nc(NC[C@H](NCCCCc2ccc3ccccc3n2)c2ccccc2)c1Cl`, in that order: above 435, 690 nM and above 300000 nM.
Consider `Cc1nc(-c2ccc(N3CCCC3)cn2)nc(NC[C@H](NC(=O)CCCN2CCNCC2)c2ccccc2)c1Cl`, for which the Ratio EC50 in assay [1] came to 1.1. Moreover, the IC50 in assay [2] came out at 1700 nM; in assay [3] it was 1100 nM.
